Measured values reported in the supplement of paper PMC11616607.

Columns and labels:
Test in all cases: drug sensitivity score (DSS) from 5-point dose-response viability curve (DSS (area-under-curve based score)); higher = more sensitive (stronger growth inhibition or killing); extreme values may be limits of the assay
Details in all cases: exposure time: 72 h; concentration range: 5 concentrations over 10,000-fold range
OVCAR5 = tested on: OVCAR5
How it was run: (§1)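 Drugs in DMSO or water were acoustically dispensed (Echo 550) into 384-well plates at five concentrations across a 10,000-fold range. Ovarian cancer and normal ovarian cells (1,500 per well) were then added, incubated for 3 days at 37°C with 5% CO2, and read for viability by CellTiter-Glo luminescence on a PHERAstar FS. From these readings, Breeze software derived a drug sensitivity score per cell line and drug, with higher values meaning more sensitive and zero meaning no response.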

Ovsaho = tested on: Ovsaho
How it was run: as §1

JHOS2 = tested on: JHOS2
How it was run: as §1

COV318 = tested on: COV318
How it was run: as §1

OVCAR8 = tested on: OVCAR8
How it was run: as §1

COV362 = tested on: COV362
How it was run: as §1

Kuramochi = tested on: Kuramochi
How it was run: as §1

OVCAR4 = tested on: OVCAR4
How it was run: as §1

HOSE2C = tested on: HOSE2C
How it was run: as §1

HOSE1C = tested on: HOSE1C
How it was run: as §1

CAOV3 = tested on: CAOV3
How it was run: as §1

OV90 = tested on: OV90
How it was run: as §1

Structure (SMILES) | drug sensitivity score (OVCAR5) | drug sensitivity score (Ovsaho) | drug sensitivity score (JHOS2) | drug sensitivity score (COV318) | drug sensitivity score (OVCAR8) | drug sensitivity score (COV362) | drug sensitivity score (Kuramochi) | drug sensitivity score (OVCAR4) | drug sensitivity score (HOSE2C) | drug sensitivity score (HOSE1C) | drug sensitivity score (CAOV3) | drug sensitivity score (OV90)
N.N.[Cl][Pt][Cl] [Cisplatin] | 8.8 | 15.7 | 4.3 | 11.7 | 5 | 3.3 | 11.2 | 10.7 | 16.4 | 18.3 | 16.5 | 4.8
Nc1nc(Cl)nc2c1ncn2[C@H]1C[C@H](O)[C@@H](CO)O1 [Cladribine] | 2.1 | 0.1 | 3.1 | 0 | 9.8 | 0.1 | 0 | 0 | 0 | 0 | 4.2 | 1.6
Nc1nc(Cl)nc2c1ncn2[C@@H]1O[C@H](CO)[C@@H](O)[C@@H]1F [Clofarabine] | 9.5 | 4.7 | 13.5 | 4.7 | 22.4 | 7.3 | 3 | 0 | 24.1 | 25 | 17.1 | 11.9
CCN(CC)CCOc1ccc(C(=C(Cl)c2ccccc2)c2ccccc2)cc1 [Clomifene] | 7 | 3.2 | 3.8 | 2.2 | 3.1 | 4.4 | 3.9 | 1.9 | 4.1 | 5.8 | 3.2 | 6.9
O=C(c1ccc(F)c(F)c1Nc1ccc(I)cc1F)N1CC(O)([C@@H]2CCCCN2)C1 [Cobimetinib] | 8.8 | 8.9 | 4 | 0 | 2.4 | 3.5 | 4.6 | 1.4 | 3 | 0.9 | 8.5 | 25.7
COc1c(OCCCN2CCOCC2)ccc2c1N=C(NC(=O)c1cnc(N)nc1)N1CCN=C21 [Copanlisib] | 10.4 | 6.3 | 2.6 | 3.8 | 5.7 | 2.5 | 8 | 5.3 | 6.6 | 4.8 | 9.9 | 3.5
CC1(COc2ccc3c(c2)ncn3-c2ccc3cccc(N4CCC(N)CC4)c3n2)COC1 [Crenolanib] | 4.9 | 4.4 | 7.9 | 5.4 | 6.9 | 6.8 | 4 | 2.9 | 2.8 | 4.8 | 10 | 6
C[C@@H](Oc1cc(-c2cnn(C3CCNCC3)c2)cnc1N)c1c(Cl)ccc(F)c1Cl [Crizotinib] | 0 | 0 | 0 | 0 | 0 | 0 | 0 | 0 | 0.1 | 0 | 0 | 0
CC(C)(C)c1nc(-c2cccc(NS(=O)(=O)c3c(F)cccc3F)c2F)c(-c2ccnc(N)n2)s1 [Dabrafenib] | 0 | 0 | 1.5 | 0 | 0 | 0 | 0 | 0 | 0 | 0 | 0 | 17.9
COc1cc2ncnc(Nc3ccc(F)c(Cl)c3)c2cc1NC(=O)/C=C/CN1CCCCC1 [Dacomitinib] | 5 | 2.6 | 0.8 | 0.2 | 2.1 | 0.2 | 2.4 | 1.3 | 0 | 1.1 | 8 | 0.1
Cc1c2oc3c(C)ccc(C(=O)N[C@@H]4C(=O)N[C@H](C(C)C)C(=O)N5CCC[C@H]5C(=O)N(C)CC(=O)N(C)[C@@H](C(C)C)C(=O)O[C@@H]4C)c3nc-2c(C(=O)N[C@@H]2C(=O)N[C@H](C(C)C)C(=O)N3CCC[C@H]3C(=O)N(C)CC(=O)N(C)[C@@H](C(C)C)C(=O)O[C@@H]2C)c(N)c1=O [Dactinomycin] | 20.9 | 26.5 | 26.5 | 9 | 24.3 | 13.9 | 27.9 | 17.5 | 30.5 | 34.6 | 23.4 | 23.1
Cn1c(=O)n(-c2ccc(C(C)(C)C#N)cc2)c2c3cc(-c4cnc5ccccc5c4)ccc3ncc21 [Dactolisib] | 15 | 15.8 | 13.7 | 13.4 | 14.4 | 3.7 | 14.4 | 15.3 | 13.9 | 20.5 | 11 | 16.7
CO[C@@H](C(=O)N1Cc2[nH]nc(NC(=O)c3ccc(N4CCN(C)CC4)cc3)c2C1)c1ccccc1 [Danusertib] | 7.2 | 14.7 | 3.1 | 4.3 | 8.7 | 5.6 | 11.1 | 8.7 | 12.5 | 7.4 | 23.5 | 4.9
CCN(CC)CCN(Cc1ccc(-c2ccc(C(F)(F)F)cc2)cc1)C(=O)Cn1c(SCc2ccc(F)cc2)nc(=O)c2c1CCC2 [Darapladib] | 0.9 | 2 | 0.3 | 0.2 | 0 | 2.4 | 1 | 0 | 0 | 0 | 0 | 0.6
Cc1nc(Nc2ncc(C(=O)Nc3c(C)cccc3Cl)s2)cc(N2CCN(CCO)CC2)n1 [Dasatinib] | 8 | 12.1 | 3.5 | 0.2 | 9.1 | 8.2 | 18.5 | 4.6 | 6 | 4.6 | 9.9 | 5.5
COc1cccc2c1C(=O)c1c(O)c3c(c(O)c1C2=O)C[C@@](O)(C(C)=O)C[C@@H]3O[C@H]1C[C@H](N)[C@H](O)[C@H](C)O1 [Daunorubicin] | 8.2 | 7.9 | 6.2 | 1.7 | 10.8 | 3.6 | 4.2 | 3.2 | 10.9 | 11.5 | 9.4 | 5.3
CC[C@@](C)(Nc1ccnc(-c2c[nH]c3ncccc23)n1)C(=O)NCC(F)(F)F [Decernotinib] | 0 | 0 | 0 | 0 | 0 | 0 | 0 | 0 | 0.6 | 0 | 0 | 0
Nc1ncn([C@H]2C[C@H](O)[C@@H](CO)O2)c(=O)n1 [Decitabine] | 2.4 | 0 | 0 | 0 | 2.8 | 0 | 0 | 2.8 | 0.5 | 0 | 2.3 | 0
CC(=O)N(O)CCCCCNC(=O)CCC(=O)N(O)CCCCCNC(=O)CCC(=O)N(O)CCCCCN [Deferoxamine] | 2.6 | 3.8 | 0.7 | 2.2 | 2.7 | 0.5 | 3.7 | 3.4 | 0 | 1.8 | 2.8 | 4.5
C[C@@H]1C[C@H]2[C@@H]3CCC4=CC(=O)C=C[C@]4(C)[C@@]3(F)[C@@H](O)C[C@]2(C)[C@@]1(O)C(=O)CO [Dexamethasone] | 0 | 0 | 0 | 0 | 0 | 0.5 | 0 | 0 | 0 | 0 | 0 | 0
C[C@H]1O[C@@H](O[C@H]2[C@@H](O)C[C@H](O[C@H]3[C@@H](O)C[C@H](O[C@H]4CC[C@@]5(C)[C@H](CC[C@@H]6[C@@H]5C[C@@H](O)[C@]5(C)[C@@H](C7=CC(=O)OC7)CC[C@]65O)C4)O[C@@H]3C)O[C@@H]2C)C[C@H](O)[C@@H]1O [Digoxin] | 7.5 | 7.1 | 10.9 | 11.9 | 11.2 | 10.8 | 8.5 | 9.6 | 9.5 | 11.1 | 6.2 | 7.2
CCc1cnn2c(NCc3ccc[n+]([O-])c3)cc(N3CCCC[C@H]3CCO)nc12 [Dinaciclib] | 17.9 | 17.9 | 19 | 15.9 | 20.7 | 13.6 | 13.1 | 15.7 | 15.4 | 28 | 17.9 | 21.2
CC(=O)O[C@@]12CO[C@@H]1C[C@H](O)[C@@]1(C)C(=O)[C@H](O)C3=C(C)[C@@H](OC(=O)[C@H](O)[C@@H](NC(=O)OC(C)(C)C)c4ccccc4)C[C@@](O)([C@@H](OC(=O)c4ccccc4)[C@H]21)C3(C)C [Docetaxel] | 23.4 | 10.3 | 13.9 | 9.5 | 27.7 | 9.3 | 16 | 8.1 | 27.6 | 29.3 | 28.7 | 15.5
Cc1ccc(-n2nc(C(C)(C)C)cc2NC(=O)Nc2ccc(OCCN3CCOCC3)c3ccccc23)cc1 [Doramapimod] | 1.1 | 2.9 | 0 | 0 | 1.8 | 0 | 0.6 | 2.4 | 2.9 | 5 | 0 | 1.5
CN1CCN(c2ccc3nc(-c4c(N)c5c(F)cccc5[nH]c4=O)[nH]c3c2)CC1 [Dovitinib] | 0 | 0 | 0 | 0 | 0 | 0 | 0 | 0.6 | 0 | 0 | 0 | 0
